Laboratory results: patent publication US10077261B2, “Imidazolin-5-one derivative useful as FASN inhibitors for the treatment of cancer” (Janssen Pharmaceutica NV, priority 2012, dated 2018)

What was measured:
A2780 ovarian cells [1] = experiment: A2780 ovarian cell proliferation assay in lipid reduced medium, without palmitate (MTT); type: cell-based; details: Homo sapiens, A2780, 96 h; read-out: pIC50 A2780 Ovarian Cell, Without Palmitate (converted)
[2] = system: LNCaP-Vancouver prostate cells; experiment: In vitro LNCaP Vancouver prostate cell proliferation assay in lipid reduced medium; type: cell-based; details: read-out: pIC50 LNCaP_Vancouver prostate cell (converted)
[3] = target: Fatty Acid Synthase Keto-reductase Domain (FASN KR) (Homo sapiens, UniProt P49327); experiment: Fatty Acid Synthase keto-reductase domain (FASN KR) inhibition, NADPH oxidation at 340 nm
Sequence of Fatty Acid Synthase Keto-reductase Domain (FASN KR) (P49327 whole entry, the tested form may be a part): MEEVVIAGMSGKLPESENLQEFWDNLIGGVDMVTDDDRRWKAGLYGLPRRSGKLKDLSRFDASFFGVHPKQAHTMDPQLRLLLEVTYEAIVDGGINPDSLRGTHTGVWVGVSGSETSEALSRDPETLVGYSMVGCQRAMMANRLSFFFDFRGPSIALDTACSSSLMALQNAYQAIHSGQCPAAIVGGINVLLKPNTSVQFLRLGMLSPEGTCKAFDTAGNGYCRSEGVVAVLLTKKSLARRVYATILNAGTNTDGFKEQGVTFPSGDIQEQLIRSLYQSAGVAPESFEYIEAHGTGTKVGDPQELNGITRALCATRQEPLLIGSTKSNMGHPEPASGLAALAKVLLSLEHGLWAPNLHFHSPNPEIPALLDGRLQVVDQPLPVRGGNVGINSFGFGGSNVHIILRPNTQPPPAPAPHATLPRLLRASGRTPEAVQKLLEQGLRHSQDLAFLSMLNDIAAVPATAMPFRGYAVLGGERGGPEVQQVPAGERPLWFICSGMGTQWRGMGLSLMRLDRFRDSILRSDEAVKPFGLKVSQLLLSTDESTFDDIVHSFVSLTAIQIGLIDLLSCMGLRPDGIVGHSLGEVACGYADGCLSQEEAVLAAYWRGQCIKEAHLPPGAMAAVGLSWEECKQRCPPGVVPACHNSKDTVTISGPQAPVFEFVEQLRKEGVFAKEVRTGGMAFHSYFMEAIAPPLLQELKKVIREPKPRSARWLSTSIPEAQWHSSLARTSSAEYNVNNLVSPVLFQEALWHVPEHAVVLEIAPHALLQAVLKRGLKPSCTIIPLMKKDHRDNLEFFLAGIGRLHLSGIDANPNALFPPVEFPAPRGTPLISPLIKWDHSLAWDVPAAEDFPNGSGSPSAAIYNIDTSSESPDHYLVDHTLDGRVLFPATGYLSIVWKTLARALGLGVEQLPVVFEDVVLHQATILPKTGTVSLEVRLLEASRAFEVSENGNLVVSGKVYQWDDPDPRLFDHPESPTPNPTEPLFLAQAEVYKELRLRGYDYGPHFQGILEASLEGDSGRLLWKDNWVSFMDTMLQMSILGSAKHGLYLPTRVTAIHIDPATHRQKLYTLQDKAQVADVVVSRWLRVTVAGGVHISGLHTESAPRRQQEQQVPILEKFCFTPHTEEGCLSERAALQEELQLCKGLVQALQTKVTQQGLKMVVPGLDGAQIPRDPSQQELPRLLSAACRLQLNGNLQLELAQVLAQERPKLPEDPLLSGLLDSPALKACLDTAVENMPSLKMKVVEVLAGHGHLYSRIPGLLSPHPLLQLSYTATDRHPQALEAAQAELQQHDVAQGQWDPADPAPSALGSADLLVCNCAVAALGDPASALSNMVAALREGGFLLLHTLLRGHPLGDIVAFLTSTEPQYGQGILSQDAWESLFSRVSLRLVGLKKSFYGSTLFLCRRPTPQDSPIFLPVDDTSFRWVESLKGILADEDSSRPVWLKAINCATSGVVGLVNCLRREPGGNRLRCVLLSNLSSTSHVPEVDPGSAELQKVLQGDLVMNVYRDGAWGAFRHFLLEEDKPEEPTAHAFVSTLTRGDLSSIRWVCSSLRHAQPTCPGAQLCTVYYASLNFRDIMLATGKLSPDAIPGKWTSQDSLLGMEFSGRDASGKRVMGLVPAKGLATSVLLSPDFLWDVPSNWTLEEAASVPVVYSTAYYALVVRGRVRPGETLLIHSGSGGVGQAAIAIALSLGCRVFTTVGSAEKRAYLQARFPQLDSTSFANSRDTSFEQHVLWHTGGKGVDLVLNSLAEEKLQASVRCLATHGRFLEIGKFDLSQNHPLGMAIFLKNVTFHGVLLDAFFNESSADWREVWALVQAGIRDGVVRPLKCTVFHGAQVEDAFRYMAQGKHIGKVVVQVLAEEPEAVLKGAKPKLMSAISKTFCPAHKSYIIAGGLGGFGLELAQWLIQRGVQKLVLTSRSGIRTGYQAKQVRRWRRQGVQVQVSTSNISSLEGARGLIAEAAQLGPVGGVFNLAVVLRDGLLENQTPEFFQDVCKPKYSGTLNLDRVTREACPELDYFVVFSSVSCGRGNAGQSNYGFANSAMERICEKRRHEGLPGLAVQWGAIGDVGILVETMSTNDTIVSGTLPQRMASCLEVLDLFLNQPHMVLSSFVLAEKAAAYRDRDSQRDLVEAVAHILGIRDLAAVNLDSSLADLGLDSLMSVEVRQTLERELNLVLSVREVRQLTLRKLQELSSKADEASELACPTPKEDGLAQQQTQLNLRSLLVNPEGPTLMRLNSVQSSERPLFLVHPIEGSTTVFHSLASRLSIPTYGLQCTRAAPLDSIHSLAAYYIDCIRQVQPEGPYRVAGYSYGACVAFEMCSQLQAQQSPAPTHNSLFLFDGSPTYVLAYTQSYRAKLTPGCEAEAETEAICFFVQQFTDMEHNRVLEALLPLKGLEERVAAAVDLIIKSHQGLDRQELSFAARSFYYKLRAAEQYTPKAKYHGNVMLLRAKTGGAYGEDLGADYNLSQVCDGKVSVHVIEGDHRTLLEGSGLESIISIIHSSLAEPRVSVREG
Description: After 20 minutes incubation at room temperature the plate was measured again (T2).
The decrease in absorbance was calculated as (Absorbance before incubation T1)−(Absorbance following incubation T2).
A plot of Controlmin versus test compound concentration was fitted to a 4-parameter logistic curve using a non-linear least squares regression method.

[4] = system: PC-3M-Luc-C6 prostate cells; experiment: In vitro PC-3M-Luc-C6 prostate cell proliferation assay in lipid reduced medium; type: cell-based; details: 96 h, read-out: pIC50 PC-3M-Luc-C6 prostate cell (converted)
[5] = target: T1, hFASN enzyme (full length) (Homo sapiens, UniProt P49327); experiment: Fatty Acid Synthase (FASN) inhibition scintillation proximity assay; type: biochemical; details: for inhibition at 10 µM: read-out: Human FASN % inhibition @ 10 μM, 10 μM test compound; for IC50: read-out: Human FASN pIC50 (converted)
T1 construct: 10 μL hFASN enzyme (full length, 300 ng, purified in house); made in house
T1 sequence (P49327 whole entry): as the sequence (P49327 whole entry, the tested form may be a part) above
In short: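 Compounds at 0.01–30 μM were mixed with 300 ng purified full-length enzyme in 100 mM KH2PO4 pH 7.5, 1 mM DTT. Substrates ³H-acetyl-CoA and malonyl-CoA were then converted, and bead addition stopped the reaction. Signal was normalised to low and high plate controls and fitted by 4-parameter nonlinear regression.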

A2780 ovarian cells [6] = experiment: A2780 ovarian cell proliferation assay in lipid reduced medium, with palmitate (MTT); type: cell-based; details: Homo sapiens, A2780, 96 h; read-out: pIC50 A2780 Ovarian Cell, With Palmitate (converted)
In short: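 Seeded cells were switched next day to lipid-reduced serum, exposed to compound and 25 μM palmitate complexed with fatty-acid-free BSA, and incubated 96 h. Proliferation was then determined by MTT absorbance at 544 nm, with a best-fit curve of signal against concentration.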

| IC50 (A2780 ovarian cells [1]) | IC50 [2] | IC50 [3] | IC50 [4] | inhibition at 10 µM [5] | IC50 [5] | IC50 (A2780 ovarian cells [6]) | SMILES |
| --- | --- | --- | --- | --- | --- | --- | --- |
| 302 nM | 692 nM | 69.2 nM | 234 nM | 100% | 49 nM | > 10000 nM | O=C(C1CC1)N1CC[C@@H](CN2C(=O)C3(CC3)N=C2c2ccc(-c3cccc4ncccc34)cc2F)C1 [compound 250, (R)-6-((1-(cyclopropanecarbonyl)pyrrolidin-3-yl)methyl)-5-(2-fluoro-4-(quinolin-5-yl)phenyl)-4,6-diazaspiro[2.4]hept-4-en-7-one] |
| 72.4 nM | 138 nM | 42.7 nM | ~41.7 nM | 101% | 32.4 nM | > 10000 nM | O=C(C1CC1)N1CC[C@@H](CN2C(=O)C3(CC3)N=C2c2ccc(-c3nc4ccccc4o3)cc2F)C1 [compound 251, (R)-5-(4-(benzo[d]oxazol-2-yl)-2-fluorophenyl)-6-((1-(cyclopropanecarbonyl)pyrrolidin-3-yl)methyl)-4,6-diazaspiro[2.4]hept-4-en-7-one] |
| 12 nM | 64.6 nM | 27.5 nM | 14.1 nM | 97% | 35.5 nM | > 10000 nM | O=C(C1CC1)N1CC[C@@H](CN2C(=O)C3(CC3)N=C2c2ccc(-c3ccc4[nH]ncc4c3)cc2F)C1 [compound 253, (R)-6-((1-(cyclopropanecarbonyl)pyrrolidin-3-yl)methyl)-5-(2-fluoro-4-(1H-indazol-5-yl)phenyl)-4,6-diazaspiro[2.4]hept-4-en-7-one] |
| 437 nM | 1380 nM | 50.1 nM | 224 nM | 100% | 29.5 nM | > 10000 nM | N#Cc1cc2cc(-c3ccc(C4=NC5(CC5)C(=O)N4C[C@@H]4CCN(C(=O)C5CC5)C4)c(F)c3)ccc2o1 [compound 254, (R)-5-(4-(6-((1-(cyclopropanecarbonyl)pyrrolidin-3-yl)methyl)-7-oxo-4,6-diazspiro[2.4]hept-4-en-5-yl)-3-fluorophenyl)benzofuran-2-carbonitrile] |
| ~977 nM | 1120 nM | 83.2 nM | ~525 nM | 99% | 63.1 nM | > 10000 nM | Cc1cc(-c2ccc3oc(C#N)cc3c2)ccc1C1=NC2(CC2)C(=O)N1C[C@@H]1CCN(C(=O)C2CC2)C1 [compound 255, (R)-5-(4-(6-((1-(cyclopropanecarbonyl)pyrrolidin-3-yl)methyl)-7-oxo-4,6-diazaspiro[2.4]hept-4-en-5-yl)-3-methylphenyl)benzofuran-2-carbonitrile] |
| 832 nM | 2400 nM | 95.5 nM | ~417 nM | 95% | 53.7 nM | > 10000 nM | N#Cc1cc2cc(-c3ccc(C4=NC5(CC5)C(=O)N4C[C@@H]4CCN(C(=O)C5CC5)C4)cc3)ccc2o1 [compound 256, (R)-5-(4-(6-((1-(cyclopropanecarbonyl)pyrrolidin-3-yl)methyl)-7-oxo-4,6-diazaspiro[2.4]hept-4-en-5-yl)phenyl)benzofuran-2-carbonitrile] |
| ~11.2 nM | 31.6 nM | 83.2 nM | 14.5 nM | 94% | 72.4 nM | > 10000 nM | O=C(C1CC1)N1CC[C@@H](CN2C(=O)C3(CC3)N=C2c2ccc(-c3ccc4cncnc4c3)cc2F)C1 [compound 258, (R)-6-((1-(cyclopropanecarbonyl)pyrrolidin-3-yl)methyl)-5-(2-fluoro-4-(quinazolin-7-yl)phenyl)-4,6-diazaspiro[2.4]hept-4-en-7-one] |
| 105 nM | 447 nM | 29.5 nM | 67.6 nM | 95% | 25.1 nM | > 10000 nM | O=C(C1CC1)N1CC[C@@H](CN2C(=O)C3(CC3)N=C2c2ccc(-c3ccc4cc(F)ccc4c3)cc2F)C1 [compound 259, (R)-6-((1-(cyclopropanecarbonyl)pyrrolidin-3-yl)methyl)-5-(2-fluoro-4-(6-fluoronaphthalen-2-yl)phenyl)-4,6-diazaspiro[2.4]hept-4-en-7-one] |
| ~70.8 nM | 85.1 nM | 37.2 nM | 37.2 nM | 101% | 16.2 nM | > 10000 nM | O=C(C1CC1)N1CC[C@@H](CN2C(=O)C3(CC3)N=C2c2ccc(-c3ccc4cccc(F)c4c3)cc2F)C1 [compound 260, (R)-6-((1-(cyclopropanecarbonyl)pyrrolidin-3-yl)methyl)-5-(2-fluoro-4-(8-fluoronaphthalen-2-yl)phenyl)-4,6-diazaspiro[2.4]hept-4-en-7-one] |
| 6.61 nM | ~102 nM | 89.1 nM | 21.4 nM | 98% | 55 nM | > 10000 nM | O=C(C1CC1)N1CC[C@@H](CN2C(=O)C3(CC3)N=C2c2ccc(-c3c[nH]c4ccccc34)cc2F)C1 [compound 261, (R)-6-((1-(cyclopropanecarbonyl)pyrrolidin-3-yl)methyl)-5-(2-fluoro-4-(1H-indol-3-yl)phenyl)-4,6-diazaspiro[2.4]hept-4-en-7-one] |
| 74.1 nM | 501 nM | 158 nM | 44.7 nM | 108% | 37.2 nM | > 10000 nM | Cn1ncc2cc(-c3ccc(C4=NC5(CC5)C(=O)N4CC4CN(C(=O)C5(O)CC5)C4)c(Cl)c3)ccc21 [compound 264, 5-(2-chloro-4-(1-methyl-1H-indazol-5-yl)phenyl)-6-((1-(1-hydroxycyclopropanecarbonyl)azetidin-3-yl)methyl)-4,6-diazaspiro[2.4]hept-4-en-7-one] |
| ~2.88 nM | 13.8 nM | ~53.7 nM | ~7.08 nM | 103% | 45.7 nM | > 10000 nM | Cc1cc(-c2ccc3c(cnn3C)c2)ccc1C1=NC2(CC2)C(=O)N1C[C@@H]1CCN(C(=O)C2(C)CC2)C1 [compound 265, (R)-5-(2-methyl-4-(1-methyl-1H-indazol-5-yl)phenyl)-6-((1-(1-methylcyclopropanecarbonyl)pyrrolidin-3-yl)methyl)-4,6-diazaspiro[2.4]hept-4-en-7-one] |
| ~2.19 nM | 15.1 nM | 46.8 nM | 4.68 nM | 102% | 33.9 nM | 1350 nM | Cc1cc(-c2ccc3cc(F)ccc3c2)ccc1C1=NC2(CC2)C(=O)N1C[C@@H]1CCN(C(=O)C2(C)CC2)C1 [compound 266, (R)-5-(4-(6-fluoronaaphthalen-2-yl)-2-methylphenyl)-6-((1-(1-methylcyclopropanecarbonyl)pyrrolidin-3-yl)methyl)-4,6-diazaspiro[2.4]hept-4-en-7-one] |
| 1.7 nM | 12.3 nM | 51.3 nM | ~3.09 nM | 97% | 26.3 nM | > 10000 nM | Cc1cc(-c2ccc(-c3cnn(C)c3)cc2)ccc1C1=NC2(CC2)C(=O)N1C[C@@H]1CCN(C(=O)C2(C)CC2)C1 [compound 267] |
| ~44.7 nM | 288 nM | 69.2 nM | 58.9 nM | 104% | 55 nM | > 10000 nM | N#Cc1ccc2nc(-c3ccc(C4=NC5(CC5)C(=O)N4CC4CN(C(=O)C5CC5)C4)c(F)c3)sc2c1 [compound 268, 2-(4-(6-((1-(cyclopropanecarbonyl)azetidin-3-yl)methyl)-7-oxo-4,6-diazaspiro[2.4]hept-4-en-5-yl)-3-fluorophenyl)benzo[d]thiazole-6-carbonitrile] |
| ~3.72 nM | 28.2 nM | 66.1 nM | ~8.32 nM | 102% | 22.4 nM | 4270 nM | Cc1cc(-c2ccc3cc(C#N)ccc3c2)ccc1C1=NC2(CC2)C(=O)N1CC1CN(C(=O)C2(C)CC2)C1 [compound 269, 6-(3-methyl-4-(6-((1-(1-methylcyclopropanecarbbonyl)azetidin-3-yl)methyl)-7-oxo-4,6-diazaspiro[2.4]hept-4-en-5-yl)phenyl)-2-naphthonitrile] |
| ~27.5 nM | 195 nM | 166 nM | 34.7 nM | 102% | 35.5 nM | ~5500 nM | Cc1ccc2nc(-c3ccc(C4=NC5(CC5)C(=O)N4CC4CN(C(=O)C5CC5)C4)c(F)c3)sc2c1 [compound 270, 6-((1-(cyclopropanecarbonyl)azetidin-3-yl)methyl)-5-(2-fluoro-4-(6-methylbenzo[d]thiazol-2-yl)phenyl)-4,6-diazaspiro[2.4]hept-4-en-7-one] |
